# Results from patent US20090099074A1, “MODULATING FOOD INTAKE” (CONJUCHEM BIOTECHNOLOGIES INC., priority 2007, published 2009).
# Test system: Male Wistar rats
# Test: Refeeding after 24 h fast, subcutaneous injection, sham operated or AP-SFO lesioned rats
# Type: in vivo, rat
# Procedure: Male Wistar rats were either sham operated or subjected to electrolytic lesions of the AP, SFO or both. Two weeks were allowed for recovery after surgeries while body weight, food and water intake were measured daily. Then rats, which were fasted for 24 hours, were subcutaneously injected with anorexigenic doses of PYY-HAS, PYY or saline (for controls) following which free access to food was reallowed. Food and water intake were measured for 24 hours following drug injections. […] However, the anorexigenic effect of both peptides was delayed in AP-SFO-lesioned rats, 1 hour in PYY treated rats and 2 hours in PYY-HAS treated rats.
substance,measurement,setting,value
PYY,delay of anorexigenic effect in AP-SFO-lesioned rats,AP-SFO-lesioned rats,1 h
same,body weight gain after food deprivation,after 24 hours fast,did not
same,persistence of anorexigenic effect during refeeding,after 24 hours fast,only during the first two hours of refeeding
same,time of maximum anorexigenic effect,after 24 hours fast,1 h
